Assay results from ChEMBL document CHEMBL1201862, “PubChem BioAssay data set” (2004).
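Following 48 hours of exposure in 96-well plates, responses at five concentrations were used to interpolate endpoints linearly. GI50 marks 50% less growth.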 Calls of active or inactive are those of the source. Rule as the data show it: active = GI50 up to about 1.1 µM and inactive = higher.

Columns and labels:
Assay in all cases: growth of human tumour cells (NCI), 48 h
[1] = test system: SK-OV-3
[2] = test system: HOP-92
[3] = test system: IGROV-1
[4] = test system: Hs-578T
[5] = test system: SW-620
[6] = test system: A549
[7] = test system: U-251
[8] = test system: SK-MEL-28
[9] = test system: OVCAR-8
[10] = test system: A498
[11] = test system: SR
[12] = test system: Malme-3M
[13] = test system: MDA-MB-435
[14] = test system: NCI-H522
[15] = test system: TK-10
[16] = test system: SF-268
[17] = test system: NCI-H23
[18] = test system: OVCAR-4
[19] = test system: RXF 393
[20] = test system: KM12

SMILES	GI50 [1]	GI50 [2]	GI50 [3]	GI50 [4]	GI50 [5]	GI50 [6]	GI50 [7]	GI50 [8]	GI50 [9]	GI50 [10]	GI50 [11]	GI50 [12]	GI50 [13]	GI50 [14]	GI50 [15]	GI50 [16]	GI50 [17]	GI50 [18]	GI50 [19]	GI50 [20]
CC(C)Cn1cnc2c(SCc3ccc(Cl)cc3Cl)nc(N)nc21	> 100 µM (inactive)	26.2 µM (inactive)	48.8 µM (inactive)	44.8 µM (inactive)	25.3 µM (inactive)	25.1 µM (inactive)	27.5 µM (inactive)	57.1 µM (inactive)	27.7 µM (inactive)	16.1 µM (inactive)	4.38 µM (inactive)	26.4 µM (inactive)	32.3 µM (inactive)	14.6 µM (inactive)	23.1 µM (inactive)	34.8 µM (inactive)	26.1 µM (inactive)	59.2 µM (inactive)	17.9 µM (inactive)	27.2 µM (inactive)
CNc1c2cccc(C)c2nc2c(C(=O)NCCN(C)C)cccc12	0.252 µM (active)	0.122 µM (active)	0.0483 µM (active)	0.0957 µM (active)	< 0.0288 µM (active)	0.034 µM (active)	0.149 µM (active)	0.45 µM (active)	0.07 µM (active)	0.213 µM (active)	< 0.0288 µM (active)	0.169 µM (active)	0.152 µM (active)	< 0.01 µM (active)	0.128 µM (active)	0.0445 µM (active)	0.107 µM (active)	< 0.01 µM (active)	0.0716 µM (active)	0.127 µM (active)
COc1ccc(C2=C(Cl)C(=O)O/C2=C\c2ccc(OC)c(Br)c2)cc1Cl	37.1 µM (inactive)	24 µM (inactive)	33.7 µM (inactive)	27.4 µM (inactive)	> 100 µM (inactive)	33.3 µM (inactive)	14.1 µM (inactive)	> 100 µM (inactive)	22.7 µM (inactive)	17.3 µM (inactive)	51.8 µM (inactive)	54 µM (inactive)	> 100 µM (inactive)	25.6 µM (inactive)	21.5 µM (inactive)	16.5 µM (inactive)	16.3 µM (inactive)	> 100 µM (inactive)	18.3 µM (inactive)	> 100 µM (inactive)
O=C(O)C1=C(C(=O)O)N(c2ccncc2)C(c2ccco2)=CC1c1ccccc1[N+](=O)[O-] (stereo not given)	18 µM (inactive)	7.06 µM (inactive)	1.85 µM (inactive)	16.7 µM (inactive)	8.85 µM (inactive)	16.2 µM (inactive)	4.92 µM (inactive)	16.2 µM (inactive)	16.7 µM (inactive)	11.8 µM (inactive)	2.03 µM (inactive)	0.925 µM (active)	13.5 µM (inactive)	1.77 µM (inactive)	6.01 µM (inactive)	13.1 µM (inactive)	12.4 µM (inactive)	13 µM (inactive)	7.94 µM (inactive)	1.62 µM (inactive)
CCCCCC(CO)C(O)(C(F)(F)F)C(F)(F)F (stereo not given)	> 10 µM (inactive)	> 10 µM (inactive)	> 10 µM (inactive)	> 10 µM (inactive)	> 10 µM (inactive)	> 10 µM (inactive)	> 10 µM (inactive)	> 10 µM (inactive)	> 10 µM (inactive)	> 10 µM (inactive)	> 10 µM (inactive)	> 10 µM (inactive)	> 10 µM (inactive)	> 10 µM (inactive)	> 10 µM (inactive)	> 10 µM (inactive)	> 10 µM (inactive)	> 10 µM (inactive)	> 10 µM (inactive)	> 10 µM (inactive)
COC(=O)c1ccc(NC(=O)O/N=C(\Cl)C(C)C)cc1	17.8 µM (inactive)	1.81 µM (inactive)	13.9 µM (inactive)	10.8 µM (inactive)	1.93 µM (inactive)	19.5 µM (inactive)	16.6 µM (inactive)	4.84 µM (inactive)	14 µM (inactive)	18.4 µM (inactive)	1.18 µM (inactive)	1.56 µM (inactive)	11.3 µM (inactive)	0.32 µM (active)	3.05 µM (inactive)	26.2 µM (inactive)	17.1 µM (inactive)	18.1 µM (inactive)	6.21 µM (inactive)	15.1 µM (inactive)
CN(C)CC1CN(C(=O)Nc2ccccc2)C(=N)O1 (stereo not given)	> 100 µM (inactive)	> 100 µM (inactive)	> 100 µM (inactive)	> 100 µM (inactive)	> 100 µM (inactive)	> 100 µM (inactive)	> 100 µM (inactive)	> 100 µM (inactive)	> 100 µM (inactive)	> 100 µM (inactive)	> 100 µM (inactive)	> 100 µM (inactive)	> 100 µM (inactive)	> 100 µM (inactive)	> 100 µM (inactive)	> 100 µM (inactive)	> 100 µM (inactive)	> 100 µM (inactive)	> 100 µM (inactive)	> 100 µM (inactive)
